Activity calls are given as the source filed them.
Experiments:
[1] = molecular target: T1, Dual specificity protein phosphatase 3 (Homo sapiens, UniProt P51452); test: VHR1 phosphatase inhibitors, primary screen, biochemical, absorbance, uHTS (AID 1654)
[2] = molecular target: Glyceraldehyde-3-phosphate dehydrogenase (Homo sapiens, UniProt P04406)
[3] = molecular target: T2, Voltage-gated N-type calcium channel alpha-1B subunit/Amyloid beta A4 precursor protein-binding family A member 1 (Homo sapiens, UniProt Q00975+Q02410); assay type: protein assay
T2 sequence (Q00975 whole entry): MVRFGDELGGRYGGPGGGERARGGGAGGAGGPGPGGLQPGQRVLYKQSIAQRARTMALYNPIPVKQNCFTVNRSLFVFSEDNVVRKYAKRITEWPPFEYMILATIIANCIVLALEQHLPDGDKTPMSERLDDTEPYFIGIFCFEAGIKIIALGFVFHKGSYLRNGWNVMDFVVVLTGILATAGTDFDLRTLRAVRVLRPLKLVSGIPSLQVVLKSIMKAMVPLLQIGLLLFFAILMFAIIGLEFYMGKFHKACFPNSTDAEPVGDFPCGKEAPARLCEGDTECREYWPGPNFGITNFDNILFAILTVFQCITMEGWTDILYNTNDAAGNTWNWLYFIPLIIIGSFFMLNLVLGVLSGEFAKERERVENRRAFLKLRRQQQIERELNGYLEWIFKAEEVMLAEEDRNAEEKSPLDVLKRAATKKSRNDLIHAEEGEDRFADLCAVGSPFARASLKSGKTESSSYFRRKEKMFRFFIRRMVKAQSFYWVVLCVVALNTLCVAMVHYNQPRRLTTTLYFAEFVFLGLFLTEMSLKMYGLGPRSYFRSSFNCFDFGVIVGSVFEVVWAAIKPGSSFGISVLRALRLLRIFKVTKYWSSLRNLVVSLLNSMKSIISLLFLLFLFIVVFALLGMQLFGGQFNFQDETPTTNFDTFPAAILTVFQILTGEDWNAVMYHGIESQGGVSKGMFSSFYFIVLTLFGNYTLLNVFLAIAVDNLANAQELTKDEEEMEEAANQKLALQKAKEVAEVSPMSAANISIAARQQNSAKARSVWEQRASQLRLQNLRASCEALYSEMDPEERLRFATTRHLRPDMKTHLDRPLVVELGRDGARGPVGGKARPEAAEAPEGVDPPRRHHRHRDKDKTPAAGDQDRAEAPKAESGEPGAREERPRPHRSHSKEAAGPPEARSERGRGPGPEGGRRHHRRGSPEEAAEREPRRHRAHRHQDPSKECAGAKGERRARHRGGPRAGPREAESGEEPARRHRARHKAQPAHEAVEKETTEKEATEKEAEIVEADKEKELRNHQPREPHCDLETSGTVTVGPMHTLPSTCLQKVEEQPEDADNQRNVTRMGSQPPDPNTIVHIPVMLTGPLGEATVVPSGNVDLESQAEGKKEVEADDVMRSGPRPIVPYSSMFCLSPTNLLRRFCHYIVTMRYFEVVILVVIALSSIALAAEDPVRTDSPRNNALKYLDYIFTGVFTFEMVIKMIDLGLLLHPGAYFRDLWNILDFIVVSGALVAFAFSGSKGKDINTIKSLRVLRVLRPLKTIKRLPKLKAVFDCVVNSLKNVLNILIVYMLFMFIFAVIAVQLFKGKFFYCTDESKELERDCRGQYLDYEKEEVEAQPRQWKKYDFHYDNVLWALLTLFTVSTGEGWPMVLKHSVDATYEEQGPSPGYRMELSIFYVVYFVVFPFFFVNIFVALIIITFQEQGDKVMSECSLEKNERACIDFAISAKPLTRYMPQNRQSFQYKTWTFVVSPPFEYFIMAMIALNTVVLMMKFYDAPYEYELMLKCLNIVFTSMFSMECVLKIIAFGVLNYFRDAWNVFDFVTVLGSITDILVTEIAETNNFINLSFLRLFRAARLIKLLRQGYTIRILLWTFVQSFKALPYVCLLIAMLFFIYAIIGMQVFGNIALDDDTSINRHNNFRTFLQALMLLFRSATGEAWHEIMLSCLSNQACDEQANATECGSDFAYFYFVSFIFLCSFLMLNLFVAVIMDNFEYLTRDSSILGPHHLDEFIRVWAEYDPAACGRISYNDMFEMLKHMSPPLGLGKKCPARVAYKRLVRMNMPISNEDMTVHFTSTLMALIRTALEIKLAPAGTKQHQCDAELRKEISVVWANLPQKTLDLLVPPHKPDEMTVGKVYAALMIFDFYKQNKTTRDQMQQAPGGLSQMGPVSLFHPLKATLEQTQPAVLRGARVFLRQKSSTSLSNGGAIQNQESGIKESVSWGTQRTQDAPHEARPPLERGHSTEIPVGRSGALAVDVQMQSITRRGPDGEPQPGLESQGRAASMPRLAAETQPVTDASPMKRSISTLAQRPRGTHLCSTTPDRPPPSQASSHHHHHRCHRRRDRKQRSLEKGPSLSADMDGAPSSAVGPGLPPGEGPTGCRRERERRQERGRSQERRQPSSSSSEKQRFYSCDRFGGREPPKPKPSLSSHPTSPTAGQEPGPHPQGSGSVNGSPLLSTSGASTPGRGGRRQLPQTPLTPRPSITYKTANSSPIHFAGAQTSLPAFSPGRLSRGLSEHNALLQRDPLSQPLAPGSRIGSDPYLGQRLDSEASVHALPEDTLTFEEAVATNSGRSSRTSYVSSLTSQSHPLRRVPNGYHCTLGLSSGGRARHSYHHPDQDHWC
T2 sequence (Q02410 whole entry): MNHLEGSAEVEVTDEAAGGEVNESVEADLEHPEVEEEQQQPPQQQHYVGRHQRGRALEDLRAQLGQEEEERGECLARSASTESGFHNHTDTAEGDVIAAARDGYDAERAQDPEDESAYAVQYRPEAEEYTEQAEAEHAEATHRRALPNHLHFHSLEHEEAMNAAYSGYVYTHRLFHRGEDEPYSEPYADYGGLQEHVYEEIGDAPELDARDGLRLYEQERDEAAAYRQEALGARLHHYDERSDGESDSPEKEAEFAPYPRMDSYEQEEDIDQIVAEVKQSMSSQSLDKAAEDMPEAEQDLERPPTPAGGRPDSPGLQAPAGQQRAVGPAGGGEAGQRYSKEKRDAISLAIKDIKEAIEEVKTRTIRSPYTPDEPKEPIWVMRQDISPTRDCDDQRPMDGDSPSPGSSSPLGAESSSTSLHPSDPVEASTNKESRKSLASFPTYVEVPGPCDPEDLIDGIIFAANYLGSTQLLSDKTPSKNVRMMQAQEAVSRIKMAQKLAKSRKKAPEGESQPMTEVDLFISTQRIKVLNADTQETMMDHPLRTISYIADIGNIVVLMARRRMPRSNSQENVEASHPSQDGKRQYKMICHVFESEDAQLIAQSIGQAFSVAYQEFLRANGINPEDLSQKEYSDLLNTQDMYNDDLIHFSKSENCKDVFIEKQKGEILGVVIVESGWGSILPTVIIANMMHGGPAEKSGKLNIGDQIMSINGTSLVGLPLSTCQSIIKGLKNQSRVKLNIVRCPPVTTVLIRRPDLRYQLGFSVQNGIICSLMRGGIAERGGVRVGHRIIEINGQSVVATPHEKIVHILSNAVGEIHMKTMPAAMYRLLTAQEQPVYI

NS3 = NS3 (Hepatitis C virus, UniProt A3EZJ3); test: PubChem AID 2173; parameters: species or system Hepacivirus hominis
[4] = molecular target: T2, Voltage-gated N-type calcium channel alpha-1B subunit/Amyloid beta A4 precursor protein-binding family A member 1; assay type: protein assay; remark: listed apart in the source
[5] = molecular target: T1, Dual specificity protein phosphatase 3; test: VHR1 phosphatase inhibitors, biochemical (AID 1878)
[6] = molecular target: Dual specificity protein phosphatase 6 (Rattus norvegicus, UniProt Q64346); test: MKP-3 phosphatase inhibitors, primary screen, biochemical, rat enzyme, in vitro (AID 425)
Sequence of Dual specificity protein phosphatase 6 (Q64346 whole entry): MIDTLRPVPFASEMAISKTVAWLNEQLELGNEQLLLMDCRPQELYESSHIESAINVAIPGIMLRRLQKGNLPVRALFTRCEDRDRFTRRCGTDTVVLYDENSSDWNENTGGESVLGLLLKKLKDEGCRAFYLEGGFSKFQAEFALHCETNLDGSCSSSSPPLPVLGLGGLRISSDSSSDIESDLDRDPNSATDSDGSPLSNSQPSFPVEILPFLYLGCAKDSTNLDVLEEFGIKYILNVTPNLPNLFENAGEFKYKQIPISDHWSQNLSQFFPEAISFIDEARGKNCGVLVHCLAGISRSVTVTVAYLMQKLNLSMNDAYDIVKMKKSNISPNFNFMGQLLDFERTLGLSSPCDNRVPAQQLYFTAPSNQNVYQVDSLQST

[7] = molecular target: Tyrosine-protein phosphatase non-receptor type 12 (Homo sapiens, UniProt Q05209); test: SAR Selectivity Analysis of small molecule inhibitors of PEST using pCAP in a fluorescence assay. [Related pubchem assays (depositor defined):AID1779, AID1784, AID2135]; assay type: functional
[8] = molecular target: T3, Tyrosine-protein phosphatase non-receptor type 22 (Homo sapiens, UniProt Q9Y2R2); test: SAR LYP1 Fluorescent Assay using OMFP substrate for In Vitro dose response studies - Set 3. [Related pubchem assays (depositor defined):AID1779, AID1784, AID2140, AID2686]; assay type: functional
T3 sequence (Q9Y2R2 whole entry): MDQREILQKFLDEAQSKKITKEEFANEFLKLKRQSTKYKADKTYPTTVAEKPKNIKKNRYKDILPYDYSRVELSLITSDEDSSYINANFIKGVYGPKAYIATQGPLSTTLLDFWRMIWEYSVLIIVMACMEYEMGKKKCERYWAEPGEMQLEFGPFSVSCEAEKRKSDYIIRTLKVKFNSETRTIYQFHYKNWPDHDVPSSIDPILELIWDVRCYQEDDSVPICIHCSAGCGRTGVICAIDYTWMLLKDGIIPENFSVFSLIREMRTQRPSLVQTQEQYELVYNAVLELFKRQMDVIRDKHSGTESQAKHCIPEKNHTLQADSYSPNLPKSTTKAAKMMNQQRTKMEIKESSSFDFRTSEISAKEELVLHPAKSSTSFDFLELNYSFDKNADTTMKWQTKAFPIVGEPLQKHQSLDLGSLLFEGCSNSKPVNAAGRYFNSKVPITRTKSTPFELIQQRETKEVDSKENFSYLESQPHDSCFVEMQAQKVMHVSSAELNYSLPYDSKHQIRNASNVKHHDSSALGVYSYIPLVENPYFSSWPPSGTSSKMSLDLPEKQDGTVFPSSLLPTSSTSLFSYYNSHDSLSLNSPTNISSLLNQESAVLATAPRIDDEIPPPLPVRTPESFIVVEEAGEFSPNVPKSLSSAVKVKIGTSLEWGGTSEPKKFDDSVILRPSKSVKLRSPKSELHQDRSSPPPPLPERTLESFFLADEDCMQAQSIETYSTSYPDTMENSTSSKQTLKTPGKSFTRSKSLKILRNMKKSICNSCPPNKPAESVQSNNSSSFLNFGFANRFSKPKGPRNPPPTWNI

[9] = molecular target: T4, Tyrosine-protein phosphatase non-receptor type 7 (Homo sapiens, UniProt P35236); test: HePTP (PTPN7) phosphatase inhibitor potency, SAR follow-up, biochemical, set 2 (AID 449736); assay type: functional
T4 sequence (P35236 whole entry): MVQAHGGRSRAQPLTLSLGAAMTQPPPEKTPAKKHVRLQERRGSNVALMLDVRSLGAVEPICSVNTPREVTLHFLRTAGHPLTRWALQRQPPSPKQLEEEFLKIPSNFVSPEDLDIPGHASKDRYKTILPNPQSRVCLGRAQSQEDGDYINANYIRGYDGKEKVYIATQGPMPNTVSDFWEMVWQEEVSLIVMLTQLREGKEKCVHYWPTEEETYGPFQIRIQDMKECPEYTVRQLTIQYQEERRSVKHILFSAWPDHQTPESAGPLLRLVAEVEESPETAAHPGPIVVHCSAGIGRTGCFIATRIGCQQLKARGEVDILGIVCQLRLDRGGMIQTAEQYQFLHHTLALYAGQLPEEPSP

[10] = molecular target: T3, Tyrosine-protein phosphatase non-receptor type 22; test: LYP (PTPN22) phosphatase inhibitor potency, SAR follow-up, biochemical, pCAP fluorogenic substrate, fluorescence, set 3 (AID 449727); assay type: functional
Protein Rev = Protein Rev (Human immunodeficiency virus type 1 group M subtype B (isolate HXB2)(HIV-1), UniProt P04618); test: inhibitors of Rev binding to RRE RNA, dose response, biochemical, fluorescence polarization, HIV-1 (AID 434976); parameters: species or system Human immunodeficiency virus 1
Sequence of Protein Rev (P04618 whole entry): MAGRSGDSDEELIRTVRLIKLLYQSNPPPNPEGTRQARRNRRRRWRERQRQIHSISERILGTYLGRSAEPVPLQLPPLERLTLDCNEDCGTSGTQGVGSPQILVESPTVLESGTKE

[11] = molecular target: Female germline-specific tumor suppressor gld-1 (Caenorhabditis elegans, UniProt Q17339); test: inhibitors of GLD-1 binding to TGE RNA, dose response, biochemical, fluorescence polarization, C. elegans (AID 2802);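 further: fluorescence polarization of labeled TGE RNA bound by purified gld-1 protein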
ORF 73 = ORF 73 (Human herpesvirus 8, UniProt O40947); test: inhibitors of C-LANA binding to LBS DNA, dose response, biochemical, fluorescence polarization, cherry-picked samples (AID 504725); parameters: species or system Human gammaherpesvirus 8;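 further: fluorescence polarization of a labeled DNA duplex reporting LANA DNA binding; potency is for inhibitors that block LANA binding to the DNA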
[12] = molecular target: UDP-galactopyranose mutase (Mycobacterium tuberculosis, UniProt P9WIQ1); test: Inhibitors of Mycobacterium tuberculosis UDP-galactopyranose mutase (UGM) enzyme Measured in Biochemical System Using Plate Reader - 2105-02_Inhibitor_Dose_CherryPick_Activity. [Related pubchem assays (depositor defined):AID504439]
Keap1/Nrf2 = Keap1/Nrf2 (Homo sapiens, UniProt Q14145); test: Keap1-Nrf2 protein-protein interaction inhibitors, dose response, biochemical, fluorescence polarization, cherry-picked samples (AID 588683)
[13] = molecular target: T5, Kappa-type opioid receptor (Homo sapiens, UniProt P41145); test: SAR analysis of small molecule agonists of the kappa opioid receptor via a luminescent beta-arrestin assay. [Related pubchem assays (depositor defined):AID1777, AID1786, AID1966, AID2133, AID2136, AID2348, AID2352, AID2357, AID2359, AID2370, AID2420, AID2478, AID2491, AID2492, AID2493, AID2497, AID2498, AID2500, AID449737, AID488822, AID488842]; assay type: functional
T5 sequence (P41145 whole entry): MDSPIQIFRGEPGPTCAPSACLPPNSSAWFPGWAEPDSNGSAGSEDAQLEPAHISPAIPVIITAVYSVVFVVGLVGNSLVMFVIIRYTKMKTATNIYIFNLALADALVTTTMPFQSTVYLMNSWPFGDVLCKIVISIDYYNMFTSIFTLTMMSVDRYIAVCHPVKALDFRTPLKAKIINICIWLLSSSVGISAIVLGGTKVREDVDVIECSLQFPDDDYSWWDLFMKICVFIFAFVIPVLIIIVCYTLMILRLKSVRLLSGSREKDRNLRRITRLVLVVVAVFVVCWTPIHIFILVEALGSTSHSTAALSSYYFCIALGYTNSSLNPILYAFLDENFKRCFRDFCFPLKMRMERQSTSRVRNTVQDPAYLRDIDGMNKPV

Mu-type opioid receptor [14] = molecular target: T6, Mu-type opioid receptor (Homo sapiens, UniProt P35372); test: MOR agonists by imaging, SAR follow-up, image-based (AID 2352); assay type: functional
T6 sequence (P35372 whole entry): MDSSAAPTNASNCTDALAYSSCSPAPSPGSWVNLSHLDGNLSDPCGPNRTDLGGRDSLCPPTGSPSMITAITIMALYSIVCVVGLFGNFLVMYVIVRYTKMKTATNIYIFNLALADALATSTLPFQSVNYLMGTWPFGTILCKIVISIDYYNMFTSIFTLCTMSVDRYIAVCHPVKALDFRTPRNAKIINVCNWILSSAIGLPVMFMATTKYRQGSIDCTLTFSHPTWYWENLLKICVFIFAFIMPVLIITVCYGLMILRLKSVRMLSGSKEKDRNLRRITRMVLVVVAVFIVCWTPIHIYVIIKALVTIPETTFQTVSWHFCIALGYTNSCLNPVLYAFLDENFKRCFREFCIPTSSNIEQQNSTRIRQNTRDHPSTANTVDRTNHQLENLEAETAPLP

[15] = molecular target: T7, Delta-type opioid receptor (Homo sapiens, UniProt P41143); test: DOR agonists, SAR follow-up, image-based (AID 2370); assay type: functional
T7 sequence (P41143 whole entry): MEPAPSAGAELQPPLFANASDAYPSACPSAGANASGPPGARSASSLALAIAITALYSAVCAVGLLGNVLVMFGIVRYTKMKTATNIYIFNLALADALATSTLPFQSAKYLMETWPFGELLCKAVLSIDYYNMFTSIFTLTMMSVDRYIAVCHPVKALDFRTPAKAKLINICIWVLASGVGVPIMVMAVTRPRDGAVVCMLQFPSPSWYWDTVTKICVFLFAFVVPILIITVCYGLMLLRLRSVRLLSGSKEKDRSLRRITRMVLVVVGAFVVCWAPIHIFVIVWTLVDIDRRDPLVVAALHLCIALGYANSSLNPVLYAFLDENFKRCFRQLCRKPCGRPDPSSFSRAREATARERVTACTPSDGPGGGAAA

[16] = molecular target: T5, Kappa-type opioid receptor; test: KOR antagonists by imaging, SAR follow-up, image-based (AID 2348); assay type: functional
Mu-type opioid receptor [17] = molecular target: T6, Mu-type opioid receptor; test: MOR antagonists, SAR follow-up, image-based (AID 2420); assay type: functional;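 further: compounds added before stimulation of receptor with agonist DAMGO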
[18] = molecular target: T5, Kappa-type opioid receptor; test: KOR agonist analogs, imaging readout, SAR follow-up, image-based (AID 2359); assay type: functional
[19] = molecular target: T7, Delta-type opioid receptor; test: DOR antagonists, SAR follow-up, image-based (AID 2357); assay type: functional
CAAX prenyl protease 1 = CAAX prenyl protease 1 (Saccharomyces cerevisiae S288c, UniProt P47154); test: Ste24 protease inhibitors, dose response, biochemical, S. cerevisiae, plate reader, cherry-pick (AID 488815)

T1 sequence (P51452 whole entry): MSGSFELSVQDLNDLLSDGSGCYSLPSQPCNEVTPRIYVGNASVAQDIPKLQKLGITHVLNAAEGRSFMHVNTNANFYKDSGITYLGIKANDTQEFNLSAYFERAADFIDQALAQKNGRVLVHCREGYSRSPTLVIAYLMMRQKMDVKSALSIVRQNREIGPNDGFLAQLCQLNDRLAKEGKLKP

## O=C(O)CCN1C(=O)/C(=C2\C(=O)N(Cc3ccccc3Cl)c3ccccc32)SC1=S
[1]
  IC50: 3.2 µM (active)
[2]
  IC50: > 100 µM (not active)
[3]
  IC50: 9.81 µM (active)
NS3
  IC50: 3.06 µM (active)
[4]
  IC50: > 50 µM (inactive)
[5]
  IC50: < 1.23 µM (inactive)
[6]
  IC50: 30.9 µM (active)
[7]
  IC50: 2.03 µM (active)
[8]
  IC50: 2.88 µM (active)
[9]
  IC50: 0.549 µM (active)
[10]
  IC50: 1.91 µM (active)

## Nc1ccc2nonc2c1[N+](=O)[O-]
Protein Rev
  IC50: 0.69 µM (active)
[11]
  IC50: 0.248 µM (active)
ORF 73
  AC50: 8.03 µM (active)
[12]
  AC50: 7.95 µM (active)
Keap1/Nrf2
  AC50: 7.99 µM (active)

## O=C(c1cnccn1)N(Cc1cccs1)C1(C(=O)NC2CCCCC2)CCCCC1
[13]
  EC50: 0.444 µM (active)
Mu-type opioid receptor [14]
  EC50: > 32 µM (inactive)
[15]
  EC50: > 32 µM (inactive)
[16]
  IC50: > 32 µM (inactive)
Mu-type opioid receptor [17]
  IC50: > 32 µM (inactive)
[18]
  EC50: 0.141 µM (active)
[19]
  IC50: > 32 µM (inactive)

## CCOC(=O)c1cc(C)nc(O)c1C#N
CAAX prenyl protease 1
  AC50: 12.3 µM (active)

From ChEMBL document CHEMBL1201862, “PubChem BioAssay data set” (2004)
